The subject of one series is A549 cells. Description: MTT cell viability assay, A549 cells. It is filed as cell-based. How it is done:
(§1) Cells were seeded at a density of 3×10^3 per well in 96-well plates, allowed to attach overnight, and treated with various concentrations of agent. After 72 h of treatment, 10 μL of MTT solution (5 mg/mL) was added to each well and cultured in the plate for 4 h. The crystallized formazan was dissolved in 100 μL of 10% (w/v) SDS and 0.01 mol/L HCl solution for 24 h, and then the value was read by spectrophotometry at 595 nm using a microplate reader.
(Tetrazolium assays rely on reduction of a dye to a coloured formazan, in cell work by metabolically active cells.)

The next series concerns H358 cells. Description: MTT cell viability assay, H358 cells. It is filed as cell-based. As for the experimental part: as §1
The subject of series [1] is drug-resistant NSCLC cells (A549, H358, H1975, H1650). Put plainly: MTT assay, summary over all four cell lines. Type of series: cell-based. As for the experimental part:
as §1

The subject of the next series is H1975 cells. Description: Colony formation (cloning experiment), H1975 cells. Conditions: 0.125 μM, 10 days. Type of series: cell-based. As for the experimental part:
Cells were seeded at a density of 1×10^3 per well in 6-well plates and cultured for 24 h. The cells were treated with medicament or DMSO for 10 days, after which the cells were washed once with 1×PBS, fixed with 4% paraformaldehyde for 20 min, and stained with 0.1% crystal violet for 15 min. The stained cells in each well were imaged and the number of colonies in each well was quantified using ImageJ software.

The subject of the next series is A549 and H1650 cells. Put plainly: Cell cycle analysis (PI staining, flow cytometer). It is filed as cell-based. Conditions: 1 or 2 μM, 48 h. As for the experimental part: Cell cycle analysis was performed using standard flow cytometer protocols. Briefly, after ATA treatment, cells were harvested, washed with 1×PBS, and then fixed with 70% pre-chilled ethanol at 4° C. for 30 min. Fixed cells were washed twice with 1×PBS, resuspended in 0.5 mL of 1×PBS containing 50 μg/mL propidium iodide (PI) and 100 μg/mL RNase A (ribonuclease A) for 30 min at 37° C. in the dark. The cell cycle was then analyzed on a BD Accuri C6 flow cytometer (BD Biosciences, CA). Data from the flow cytometer were analyzed using FlowJo software (Tree Star).
(In general: Flow cytometry measures light scatter and fluorescence of single cells or particles in a stream.)

Series [2] in a line: Body weight, deaths and toxicity in the xenograft study. Conditions: 25 mg/kg intraperitoneally every 3 days for 31 days. As for the experimental part: Cell line xenograft experiments were performed in 6-week-old female nude mice, 4×10^6 A549 cells were mixed 1:1 with matrigel-basement membrane matrix (Corning) and injected subcutaneously into nude mice. Tumors were allowed to grow to around […] and mice were randomly selected to receive treatment with ATA (25 mg/kg) or Erlotinib (25 mg/kg) intraperitoneally every 3 days for 31 days. ATA was formulated with 25% ethanol, 60% PEG300 (Sigma-Aldrich), and 15% Tween 80 (Sigma-Aldrich). Erlotinib was formulated in 5% DMSO, 30% PEG300, 5% Tween 80 and 60% H2O. Mouse body weight and tumor volume were measured every 3 days by a scale and caliper. Tumor volume (mm^3) was calculated using the formula. π/6×length (mm)×[width (mm)]^2. At least 6 mice in the control and treatment groups were evaluated during the study. All mice were sacrificed after 31 days of drug treatment, tumors were collected, and tumor weights were recorded. All animal studies were conducted in accordance with the requirements of the Animal Research Ethics Committee of Macao University and in compliance with all relevant ethical requirements.
To determine if ATA could also produce the same effect in vivo, this example injected A549 cells subcutaneously into nude mice to form tumor xenografts. Mice were randomly assigned to three groups. When the size of each tumor increased to a volume of approximately 100 mm^3, mice were injected intraperitoneally with vehicle control, ATA (25 mg/kg), or Erlotinib (25 mg/kg) every 3 days for 31 days. The tumor size and body weight of each mouse were measured every 3 days until the end of the animal experiment on day 31.

Molecules are shown by their SMILES. Entries after “also recorded” stand apart in the source; their conditions may differ.

In general, IC50 refers to the concentration that gives 50% inhibition. With `CC(=O)Oc1c(OC(C)=O)c2c(C)coc2c2ccc3c(c12)CCCC3(C)C` [ATA, acetyltanshinone IIA], the “IC50 ratio of Erlotinib/ATA” value in the series on A549 cells worked out at 10.7. For the same compound, in the series on A549 cells (ATA 2 μM, 72 h, MTT), the “growth inhibition compared with other agents” value is “significantly higher than all three inhibitors; also recorded: greater growth inhibition than combination therapy with Erlotinib and MLN8237”. In the series with A549 cells (MTT, 72 h), this compound displayed an IC50 of 1830 ± 210 nM. In addition, in the series on H358 cells, the “IC50 ratio of Erlotinib/ATA” value amounted to 13.7. In the series with H358 cells (MTT, 72 h), this compound gave a half-maximal inhibitory concentration (IC50) of 1570 ± 100 nM. Also, the IC50 in series [1] (A549, H358, H1975, H1650, MTT, 72 h, read-out: IC50 values, range over the four cell lines) fell in the range of 1300 to 1800 nM. For the same compound, the “IC50 of ATA lower than that of Erlotinib” value in series [1] (four cell lines) was 6-17 fold. Further, in the series with H1975 cells, the “inhibition of colony formation” value is on record as “almost completely inhibited”. In addition, in the series on A549 and H1650 cells, the “proportion of cells in the G1 phase” value is listed as “increased” and the “proportion of cells in the S phase” value is listed as “decreased”. Moreover, in series [2], the “deaths during the treatment period” value is on record as “no mice died”, the “toxicity in nude mice” value is on record as “no significant toxicity” and the “weight of nude mice compared between groups” value is given as “no difference”.
